Test results as given in patent US10770169B2, “Method of providing a treatment to a subject based on a dynamic pathway map” (THE REGENTS OF THE UNIVERSITY OF CALIFORNIA, priority 2010, dated 2020).
Like-named read-outs stand apart in the source and are kept apart here.

Tests used:
[1] = tested on: panel of 55 breast cancer cell lines; assay: Cell growth inhibition assay (Cell Titer Glo, 72 h, 9 doses; GI50, TGI, LC50); format: cell-based, human; conditions: Homo sapiens, read-out: GI50 (converted)
[2] = tested on: luminal, basal, claudin-low and ERBB2AMP breast cancer cell lines; assay: Associations of clinically relevant subtypes and response (non-parametric ANOVA or t-test on GI50 ranks); format: cell-based, human; conditions: Table 6; most sensitive subtype, FDR p<0.20
Procedure, shortened: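 GI50 values were compared between cell-line subtype groups by non-parametric ANOVA or t-test on ranks. P-values from three test sets were combined and FDR-corrected. Significant three-group effects were followed by post-hoc comparison of each group against all others, and FDR p<0.20 counted as significant.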

## C#Cc1cccc(Nc2ncnc3cc(OCCOC)c(OCCOC)cc23)c1 [Erlotinib]
[1]; AU565, AU565 cell line, censored GI50 values
  GI50: 13.2 µM
[1]; AU565, cell line AU565
  GI50: 13.2 µM
[1]; BT-20, BT20 cell line, censored GI50 values
  GI50: 2 µM
[1]; BT-20, cell line BT20
  GI50: 2 µM
[1]; BT-474, BT474 cell line, censored GI50 values
  GI50: 10.5 µM
[1]; BT-474, cell line BT474
  GI50: 10.5 µM
[1]; BT-483, cell line BT483
  GI50: 66.1 µM
[1]; BT-549, BT549 cell line, censored GI50 values
  GI50: 41.7 µM
[1]; BT-549, cell line BT549
  GI50: 41.7 µM
[1]; CAMA-1, cell line CAMA1
  GI50: 66.1 µM
[1]; HCC38, cell line HCC38
  GI50: 66.1 µM
[1]; HCC70, HCC70 cell line, censored GI50 values
  GI50: 1.74 µM
[1]; HCC70, cell line HCC70
  GI50: 1.74 µM
[1]; HCC202, HCC202 cell line, censored GI50 values
  GI50: 37.2 µM
[1]; HCC202, cell line HCC202
  GI50: 37.2 µM
[1]; HCC1143, cell line HCC1143
  GI50: 57.5 µM
[1]; HCC1187, HCC1187 cell line, censored GI50 values
  GI50: 7.59 µM
[1]; HCC1187, cell line HCC1187
  GI50: 7.59 µM
[1]; HCC1395, HCC1395 cell line, censored GI50 values
  GI50: 39.8 µM
[1]; HCC1395, cell line HCC1395
  GI50: 39.8 µM
[1]; HCC1419, HCC1419 cell line, censored GI50 values
  GI50: 10.7 µM
[1]; HCC1419, cell line HCC1419
  GI50: 10.7 µM
[1]; HCC1428, HCC1428 cell line, censored GI50 values
  GI50: 17.8 µM
[1]; HCC1428, cell line HCC1428
  GI50: 17.8 µM
[1]; HCC1500, HCC1500 cell line, censored GI50 values
  GI50: 6.46 µM
[1]; HCC1500, cell line HCC1500
  GI50: 6.46 µM
[1]; HCC1806, HCC1806 cell line, censored GI50 values
  GI50: 4.27 µM
[1]; HCC1806, cell line HCC1806
  GI50: 4.27 µM
[1]; HCC1937, HCC1937 cell line, censored GI50 values
  GI50: 38.9 µM
[1]; HCC1937, cell line HCC1937
  GI50: 38.9 µM
[1]; HCC1954, HCC1954 cell line, censored GI50 values
  GI50: 3.09 µM
[1]; HCC1954, cell line HCC1954
  GI50: 3.09 µM
[1]; HCC2185 cell line, censored GI50 values
  GI50: 23.4 µM
[1]; HCC3153 cell line, censored GI50 values
  GI50: 31.6 µM
[1]; LY2 cell line, censored GI50 values
  GI50: 33.1 µM
[1]; MCF7, cell line MCF7
  GI50: 66.1 µM
[1]; MDA-MB-157, cell line MDAMB157
  GI50: 50.1 µM
[1]; MDA-MB-175-VII, MDAMB175VII cell line, censored GI50 values
  GI50: 3.09 µM
[1]; MDA-MB-231, MDAMB231 cell line, censored GI50 values
  GI50: 39.8 µM
[1]; MDA-MB-231, cell line MDAMB231
  GI50: 39.8 µM
[1]; MDA-MB-361, cell line MDAMB361
  GI50: 64.6 µM
[1]; MDA-MB-436, cell line MDAMB436
  GI50: 55 µM
[1]; MDA-MB-453, cell line MDAMB453
  GI50: 44.7 µM
[1]; MDA-MB-468, MDAMB468 cell line, censored GI50 values
  GI50: 21.4 µM
[1]; MDA-MB-468, cell line MDAMB468
  GI50: 21.4 µM
[1]; SK-BR-3, SKBR3 cell line, censored GI50 values
  GI50: 15.8 µM
[1]; SK-BR-3, cell line SKBR3
  GI50: 15.8 µM
[1]; SUM52PE, SUM52PE cell line, censored GI50 values
  GI50: 31.6 µM
[1]; SUM52PE, cell line SUM52PE
  GI50: 31.6 µM
[1]; SUM149PT, SUM149PT cell line, censored GI50 values
  GI50: 2 µM
[1]; SUM149PT, cell line SUM149PT
  GI50: 2 µM
[1]; SUM185PE, cell line SUM185PE
  GI50: 66.1 µM
[1]; SUM225CWN, SUM225CWN cell line, censored GI50 values
  GI50: 7.08 µM
[1]; SUM225CWN, cell line SUM225CWN
  GI50: 7.08 µM
[1]; SUM1315MO2, SUM1315MO2 cell line, censored GI50 values
  GI50: 7.41 µM
[1]; SUM-159-PT, SUM159PT cell line, censored GI50 values
  GI50: 11.7 µM
[1]; SUM-159-PT, cell line SUM159PT
  GI50: 11.7 µM
[1]; T47D, cell line T47D
  GI50: 50.1 µM
[1]; UACC-812, UACC812 cell line, censored GI50 values
  GI50: 12.3 µM
[1]; UACC-812, cell line UACC812
  GI50: 12.3 µM
[1]; UACC-893, UACC893 cell line, censored GI50 values
  GI50: 12.3 µM
[1]; UACC-893, cell line UACC893
  GI50: 12.3 µM
[1]; ZR-75-1, cell line ZR751
  GI50: 66.1 µM
[1]; ZR-75B, cell line ZR75B
  GI50: 66.1 µM
[1]; cell line 600MPE
  GI50: 52.5 µM
[1]; cell line HCC2185
  GI50: 23.4 µM
[1]; cell line HCC3153
  GI50: 31.6 µM
[1]; cell line LY2
  GI50: 33.1 µM
[1]; cell line MDAMB134V
  GI50: 66.1 µM
[1]; cell line MDAMB175V
  GI50: 3.09 µM
[1]; cell line SUM1315MO
  GI50: 7.41 µM
[2]
  Subtype specificity: Basal
